Assay results as given in ChEMBL document CHEMBL3045926, “Exacerbative role of vitamn A on radiation damage in vivo” (2008).

Columns and labels:
Type in all cases: functional
Cavia porcellus [1] = experiment: (§1) Antioxidant activity against gamma irradiation-induced ROS production in Cavia porcellus (guinea pig) liver assessed as superoxide dismutase level per mg protein at 50 U/Kg, ip administered 2 days prior to irradiation-challenge measured after 30 min by spectroscopic analysis (reference value: 8.72 +/- 1.94 U per mg protein)
Cavia porcellus [2] = experiment: (§2) Antioxidant activity against gamma irradiation-induced ROS production in Cavia porcellus (guinea pig) liver assessed as nitric oxide level at 50 U/Kg, ip administered 2 days prior to irradiation-challenge measured after 30 min by ESR spectroscopic analysis (reference value: 0.3 +/- 0.08 a.u)
Cavia porcellus [3] = experiment: as §2, with “thiobarbituric acid reactive substance” for “nitric oxide”, “level per g tissue” for “level”, “by” for “by ESR”, “168.75” for “0.3”, “12.54 nmol per g tissue)” for “0.08 a.u)”
Cavia porcellus [4] = experiment: as §1, with “glutathione peroxidase” for “superoxide dismutase”, “0.76” for “8.72”, “0.06” for “1.94”

CC1=C(/C=C/C(C)=C/C=C/C(C)=C/CO)C(C)(C)CCC1 [RETINOL]
Activity (Cavia porcellus [1]): 6.66 U/mg | Activity (Cavia porcellus [2]): 1.04 a.u. | Activity (Cavia porcellus [3]): 197 nmol/g | Activity (Cavia porcellus [4]): 0.39 U/mg
